Read-outs that look alike come from different tables or passages of the source. Values belong to the molecule of their own block, whether it stands above or below them.
Experiments:
[1] = Rat liver microsomal stability; format: in vitro ADME; conditions: incubation with microsomes for 15 min at 5 μM
[2] = Human liver microsomal stability; format: in vitro ADME; conditions: incubation with microsomes for 15 min at 5 μM
mGlu2 receptor [3] = biological target: T1, mGlu2 receptor (Homo sapiens, UniProt Q14416); assay: [35S]GTPγS binding assay, agonist mode; format: biochemical; conditions: for Emax: read-out: mGlu2 Ago EMAX ±SD
[4] = Brain and plasma kinetics in rat after a single dose; format: in vivo, male Sprague Dawley rat
mGlu8 = mGlu8 (Homo sapiens, UniProt O00222); assay: Selectivity panel, mGlu8 Ca2+ assay; format: cell-based
mGlu8, sequence (O00222 34-908): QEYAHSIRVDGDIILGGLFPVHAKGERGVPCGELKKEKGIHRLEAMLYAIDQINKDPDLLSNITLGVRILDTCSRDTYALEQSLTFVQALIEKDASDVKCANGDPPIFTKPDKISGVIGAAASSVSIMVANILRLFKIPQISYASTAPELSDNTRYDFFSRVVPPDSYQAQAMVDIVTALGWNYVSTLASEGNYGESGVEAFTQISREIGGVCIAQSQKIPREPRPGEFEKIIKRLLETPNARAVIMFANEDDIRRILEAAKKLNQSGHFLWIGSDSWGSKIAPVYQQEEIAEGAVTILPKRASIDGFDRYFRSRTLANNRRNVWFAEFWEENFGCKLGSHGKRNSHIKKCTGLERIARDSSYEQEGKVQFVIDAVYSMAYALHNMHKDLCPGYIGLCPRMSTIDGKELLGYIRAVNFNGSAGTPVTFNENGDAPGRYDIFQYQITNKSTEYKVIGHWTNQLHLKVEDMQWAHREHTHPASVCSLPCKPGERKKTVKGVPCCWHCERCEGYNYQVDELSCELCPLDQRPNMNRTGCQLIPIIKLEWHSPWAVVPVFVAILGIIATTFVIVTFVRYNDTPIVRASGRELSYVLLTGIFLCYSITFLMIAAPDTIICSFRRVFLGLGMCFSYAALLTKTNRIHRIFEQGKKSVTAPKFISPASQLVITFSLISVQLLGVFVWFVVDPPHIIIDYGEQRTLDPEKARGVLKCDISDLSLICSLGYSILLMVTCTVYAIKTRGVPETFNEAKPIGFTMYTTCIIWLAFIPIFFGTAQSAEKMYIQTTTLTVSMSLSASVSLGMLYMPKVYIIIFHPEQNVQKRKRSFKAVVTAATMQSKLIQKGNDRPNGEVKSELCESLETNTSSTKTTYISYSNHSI

mGlu1 = mGlu1 (Homo sapiens, UniProt Q13255); assay: Selectivity panel, mGlu1 Ca2+ assay; format: cell-based
mGlu1, sequence (Q13255 19-1194): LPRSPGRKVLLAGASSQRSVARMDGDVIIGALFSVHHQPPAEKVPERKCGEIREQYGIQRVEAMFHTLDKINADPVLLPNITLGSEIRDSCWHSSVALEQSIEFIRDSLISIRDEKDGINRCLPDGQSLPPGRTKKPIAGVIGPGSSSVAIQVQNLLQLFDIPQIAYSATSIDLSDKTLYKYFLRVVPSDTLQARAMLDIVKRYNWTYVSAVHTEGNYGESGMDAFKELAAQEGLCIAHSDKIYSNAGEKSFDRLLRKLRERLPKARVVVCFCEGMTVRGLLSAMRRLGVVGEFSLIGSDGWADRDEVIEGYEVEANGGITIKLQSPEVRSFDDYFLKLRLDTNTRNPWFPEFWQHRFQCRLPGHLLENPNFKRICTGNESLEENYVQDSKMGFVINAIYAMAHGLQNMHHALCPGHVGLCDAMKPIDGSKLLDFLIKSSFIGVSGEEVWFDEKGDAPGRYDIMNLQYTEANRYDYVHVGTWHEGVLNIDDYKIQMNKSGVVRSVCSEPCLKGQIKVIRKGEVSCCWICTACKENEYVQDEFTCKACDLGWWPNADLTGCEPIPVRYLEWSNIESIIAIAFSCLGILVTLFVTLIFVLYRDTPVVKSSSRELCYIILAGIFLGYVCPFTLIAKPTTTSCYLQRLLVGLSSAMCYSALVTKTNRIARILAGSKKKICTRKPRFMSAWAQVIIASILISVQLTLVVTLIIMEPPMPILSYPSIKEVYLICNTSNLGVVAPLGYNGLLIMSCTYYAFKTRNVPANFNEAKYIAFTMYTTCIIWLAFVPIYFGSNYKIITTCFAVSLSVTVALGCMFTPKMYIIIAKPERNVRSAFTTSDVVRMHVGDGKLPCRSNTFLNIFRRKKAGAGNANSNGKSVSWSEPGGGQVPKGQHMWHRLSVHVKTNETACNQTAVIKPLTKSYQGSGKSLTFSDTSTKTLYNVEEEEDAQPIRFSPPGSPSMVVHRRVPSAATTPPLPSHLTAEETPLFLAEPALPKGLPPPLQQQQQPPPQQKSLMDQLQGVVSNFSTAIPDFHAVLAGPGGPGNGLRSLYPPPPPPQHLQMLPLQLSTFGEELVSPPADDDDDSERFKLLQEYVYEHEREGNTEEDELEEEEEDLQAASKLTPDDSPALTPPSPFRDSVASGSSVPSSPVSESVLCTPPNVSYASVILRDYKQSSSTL

mGlu5 = mGlu5 (Homo sapiens, UniProt P41594); assay: Selectivity panel, mGlu5 Ca2+ assay; format: cell-based
mGlu5, sequence (P41594 21-1212): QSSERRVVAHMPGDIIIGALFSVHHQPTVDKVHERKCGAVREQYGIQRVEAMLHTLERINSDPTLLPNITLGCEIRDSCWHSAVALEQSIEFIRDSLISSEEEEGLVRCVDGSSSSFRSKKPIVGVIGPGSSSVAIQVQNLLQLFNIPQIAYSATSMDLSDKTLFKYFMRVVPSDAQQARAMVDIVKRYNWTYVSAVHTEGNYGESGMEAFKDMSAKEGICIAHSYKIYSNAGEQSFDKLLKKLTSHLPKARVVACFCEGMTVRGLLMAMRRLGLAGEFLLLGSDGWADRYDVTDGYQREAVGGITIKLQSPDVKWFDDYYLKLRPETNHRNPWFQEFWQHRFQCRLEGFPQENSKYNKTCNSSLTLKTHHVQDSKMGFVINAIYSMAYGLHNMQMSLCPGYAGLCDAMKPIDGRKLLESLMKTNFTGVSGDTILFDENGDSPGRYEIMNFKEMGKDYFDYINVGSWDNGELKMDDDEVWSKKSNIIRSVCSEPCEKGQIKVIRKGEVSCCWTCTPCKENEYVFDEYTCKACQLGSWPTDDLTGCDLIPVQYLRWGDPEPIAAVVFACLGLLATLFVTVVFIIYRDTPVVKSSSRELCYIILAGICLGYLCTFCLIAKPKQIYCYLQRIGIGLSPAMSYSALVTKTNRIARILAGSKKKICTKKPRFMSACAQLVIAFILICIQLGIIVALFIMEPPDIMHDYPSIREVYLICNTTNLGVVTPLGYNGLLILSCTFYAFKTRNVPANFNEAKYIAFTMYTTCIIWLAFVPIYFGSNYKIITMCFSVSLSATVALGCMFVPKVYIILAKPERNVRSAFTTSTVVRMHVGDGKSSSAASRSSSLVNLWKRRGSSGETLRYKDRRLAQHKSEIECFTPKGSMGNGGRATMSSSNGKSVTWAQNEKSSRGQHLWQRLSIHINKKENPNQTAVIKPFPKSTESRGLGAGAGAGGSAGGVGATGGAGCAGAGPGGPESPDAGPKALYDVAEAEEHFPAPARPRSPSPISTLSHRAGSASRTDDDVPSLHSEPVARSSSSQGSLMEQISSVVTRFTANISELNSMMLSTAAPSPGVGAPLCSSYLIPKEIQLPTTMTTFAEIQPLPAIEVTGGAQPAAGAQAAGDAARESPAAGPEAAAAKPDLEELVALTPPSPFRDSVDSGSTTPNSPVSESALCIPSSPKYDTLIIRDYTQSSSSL

mGlu3 = mGlu3 (Homo sapiens, UniProt Q14832); assay: Selectivity panel, mGlu3 Ca2+ assay; format: cell-based
mGlu3, sequence (Q14832 23-879): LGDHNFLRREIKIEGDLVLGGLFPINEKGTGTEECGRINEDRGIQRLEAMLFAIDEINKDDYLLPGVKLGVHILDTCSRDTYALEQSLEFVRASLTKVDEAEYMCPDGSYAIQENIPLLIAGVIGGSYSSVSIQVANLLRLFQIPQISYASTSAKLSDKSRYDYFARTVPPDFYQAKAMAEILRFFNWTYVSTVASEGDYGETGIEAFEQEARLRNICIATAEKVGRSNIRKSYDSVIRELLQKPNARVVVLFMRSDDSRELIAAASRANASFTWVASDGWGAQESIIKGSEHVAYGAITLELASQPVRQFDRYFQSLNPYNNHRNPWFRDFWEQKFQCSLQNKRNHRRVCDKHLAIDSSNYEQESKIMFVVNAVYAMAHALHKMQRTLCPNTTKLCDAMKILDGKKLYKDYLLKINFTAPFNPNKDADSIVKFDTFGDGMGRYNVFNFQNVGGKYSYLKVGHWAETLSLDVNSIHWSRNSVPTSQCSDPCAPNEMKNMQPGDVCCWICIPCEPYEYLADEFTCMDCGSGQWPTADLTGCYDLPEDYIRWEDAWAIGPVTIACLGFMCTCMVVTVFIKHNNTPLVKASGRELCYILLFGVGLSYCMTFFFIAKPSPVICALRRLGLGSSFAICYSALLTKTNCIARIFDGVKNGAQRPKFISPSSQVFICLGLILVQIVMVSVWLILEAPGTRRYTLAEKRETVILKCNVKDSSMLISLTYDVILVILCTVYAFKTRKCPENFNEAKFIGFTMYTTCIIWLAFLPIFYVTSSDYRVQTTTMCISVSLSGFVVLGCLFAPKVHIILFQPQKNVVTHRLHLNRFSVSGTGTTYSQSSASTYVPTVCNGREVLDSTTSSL

mGlu4 = mGlu4 (Homo sapiens, UniProt Q14833); assay: Selectivity panel, mGlu4 assay; format: cell-based
mGlu4, sequence (Q14833 33-912): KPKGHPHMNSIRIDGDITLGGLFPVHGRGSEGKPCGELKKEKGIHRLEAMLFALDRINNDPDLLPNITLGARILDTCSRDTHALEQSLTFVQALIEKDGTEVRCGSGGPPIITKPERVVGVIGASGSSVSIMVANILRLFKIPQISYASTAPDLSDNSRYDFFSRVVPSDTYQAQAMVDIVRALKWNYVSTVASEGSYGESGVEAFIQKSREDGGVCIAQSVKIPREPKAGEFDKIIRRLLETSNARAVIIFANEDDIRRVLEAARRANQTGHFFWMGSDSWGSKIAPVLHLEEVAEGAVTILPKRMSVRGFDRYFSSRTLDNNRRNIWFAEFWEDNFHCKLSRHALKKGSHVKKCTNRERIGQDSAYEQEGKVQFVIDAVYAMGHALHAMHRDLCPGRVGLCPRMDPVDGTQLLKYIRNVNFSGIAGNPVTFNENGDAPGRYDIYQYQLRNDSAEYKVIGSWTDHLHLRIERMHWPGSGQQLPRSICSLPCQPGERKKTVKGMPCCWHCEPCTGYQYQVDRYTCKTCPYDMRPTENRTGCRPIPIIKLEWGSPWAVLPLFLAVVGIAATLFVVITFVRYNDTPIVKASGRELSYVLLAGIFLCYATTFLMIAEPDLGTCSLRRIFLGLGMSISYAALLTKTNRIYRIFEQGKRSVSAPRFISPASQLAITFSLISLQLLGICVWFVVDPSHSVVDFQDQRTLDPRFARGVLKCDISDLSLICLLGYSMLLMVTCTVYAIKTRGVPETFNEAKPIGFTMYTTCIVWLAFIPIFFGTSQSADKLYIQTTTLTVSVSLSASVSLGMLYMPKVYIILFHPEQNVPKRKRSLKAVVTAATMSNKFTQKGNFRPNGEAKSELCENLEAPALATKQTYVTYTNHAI

mGlu7 = mGlu7 (Homo sapiens, UniProt Q14831); assay: Selectivity panel, mGlu7 Ca2+ assay; format: cell-based
mGlu6 = mGlu6 (Rattus norvegicus, UniProt P35349); assay: Selectivity panel, mGlu6 [35S]GTPγS binding; format: biochemical
mGlu2 receptor [5] = biological target: T1, mGlu2 receptor; assay: [35S]GTPγS binding assay, PAM mode; format: biochemical
[6] = male, Sprague Dawley, brain, sc, 10 mg/kg
[7] = male, Sprague Dawley, brain/plasma, sc, 10 mg/kg
[8] = male, Sprague Dawley, plasma, sc, 10 mg/kg, pH 3
[9] = male, Sprague Dawley, plasma, sc, 10 mg/kg
[10] = male, Sprague Dawley, brain, po, 10 mg/kg
[11] = male, Sprague Dawley, plasma, po, 10 mg/kg

RLM (%), percentage of compound metabolized [1]: 45%
HLM (%), percentage of compound metabolized [2]: 2%
SMILES: CCCCn1ccn2c(-c3ccc(OCC4CC4)c(Cl)c3)nnc2c1=O [Compound 4a, 7-Butyl-3-[3-chloro-4-(cyclopropylmethoxy)phenyl]-[1,2,4]triazolo[4,3-a]pyrazin-8-one]

RLM (%), percentage of compound metabolized [1]: 25%
HLM (%), percentage of compound metabolized [2]: 1%
SMILES: CCCCn1cnn2c(-c3ccc(OCC4CC4)c(Cl)c3)cnc2c1=O [Compound 4b, 3-Butyl-7-[3-chloro-4-(cyclopropylmethoxy)phenyl]imidazo[2,1-f][1,2,4]triazin-4-one]

RLM (%), percentage of compound metabolized [1]: 21%
HLM (%), percentage of compound metabolized [2]: 4%
SMILES: CCCCn1ncn2c(-c3ccc(OCC4CC4)c(Cl)c3)cnc2c1=O [Compound 4c, 7-Butyl-3-[3-chloro-4-(cyclopropylmethoxy)phenyl]imidazo[1,2-d][1,2,4]triazin-8-one]

RLM (%), percentage of compound metabolized [1]: 60%
HLM (%), percentage of compound metabolized [2]: 0%
SMILES: CCCCn1cnc2c(-c3ccc(OCC4CC4)c(Cl)c3)c(C)nn2c1=O [Compound 4d, 3-Butyl-8-[3-chloro-4-(cyclopropylmethoxy)phenyl]-7-methyl-pyrazolo[1,5-a][1,3,5]triazin-4-one]

EC50 (mGlu2 receptor [3]): > 50.1 µM
Emax (mGlu2 receptor [3]): 12%
RLM (%), percentage of compound metabolized [1]: 74%
HLM (%), percentage of compound metabolized [2]: 31%
fold decrease in mGlu2 PAM potency vs 3e (mGlu2 receptor [5]): ~10 fold
SMILES: CCCCn1ccn2c(-c3ccc(OCC4CC4)c(Cl)c3)nc(C)c2c1=O [Compound 4e, 7-Butyl-3-[3-chloro-4-(cyclopropylmethoxy)phenyl]-1-methyl-imidazo[1,5-a]pyrazin-8-one]

Continued, molecule first:

SMILES: CCCCn1ccn2c(CN3CCC(c4ccccc4)CC3)c(C)nc2c1=O [Compound 3a]
RLM (%), percentage of compound metabolized [1]: 58%
HLM (%), percentage of compound metabolized [2]: 20%

SMILES: CCCCn1ccn2c(-c3ccc(Oc4ccc(C)nc4C)c(F)c3)c(C)nc2c1=O [Compound 3c]
EC50 (mGlu2 receptor [3]): 1.82 µM
Emax (mGlu2 receptor [3]): 54%
RLM (%), percentage of compound metabolized [1]: 56%
HLM (%), percentage of compound metabolized [2]: 24%
concentration at 1 h [4, 6]: 446 ng/g
Kp at 1 h [4, 7]: 0.2
concentration at 1 h [4, 8]: 1820 ng/mL

SMILES: CCCCn1ccn2c(-c3ccc(NCc4ccc(OC)nc4)cc3)c(C)nc2c1=O [Compound 3d]
EC50 (mGlu2 receptor [3]): 0.571 µM
Emax (mGlu2 receptor [3]): 47 ± 1%
RLM (%), percentage of compound metabolized [1]: 36%
HLM (%), percentage of compound metabolized [2]: 59%
Kp at […] [4, 7]: 0.3

SMILES: CCCCn1ccn2c(-c3ccc(OCC4CC4)c(Cl)c3)c(C)nc2c1=O [Compound 3e]
EC50 (mGlu8): > 25 µM
IC50 (mGlu8): > 25 µM
EC50 (mGlu8; read-out: mGlu8 agonism EC50, Ca2+ read-out): > 25 µM
Emax (mGlu8; read-out: mGlu8 agonism Emax): -4%
Emax (mGlu8; read-out: mGlu8 antagonism Emax): 16%
RLM (%), percentage of compound metabolized [1]: 49%
HLM (%), percentage of compound metabolized [2]: 20%
EC50 (mGlu1): > 30 µM
IC50 (mGlu1): > 30 µM
Emax (mGlu1; read-out: mGlu1 agonism Emax): 4%
Emax (mGlu1; read-out: mGlu1 antagonism Emax): 18%
EC50 (mGlu5): > 30 µM
IC50 (mGlu5): > 30 µM
Emax (mGlu5; read-out: mGlu5 PAM Emax): 0%
EC50 (mGlu5; read-out: mGlu5 agonism EC50, Ca2+ read-out): > 30 µM
Emax (mGlu5; read-out: mGlu5 agonism Emax): 0%
Emax (mGlu5; read-out: mGlu5 antagonism Emax): 7%
IC50 (mGlu3): > 30 µM
EC50 (mGlu3; mGlu3 PAM EC50, Ca2+ read-out): 14.3 µM
EC50 (mGlu3; mGlu3 agonism EC50, Ca2+ read-out): > 30 µM
Emax (mGlu3; read-out: mGlu3 PAM Emax): 63%
Emax (mGlu3; read-out: mGlu3 agonism Emax): 2%
Emax (mGlu3; read-out: mGlu3 antagonism Emax): 15%
concentration at 1 h [4, 6]: 2540 ng/g
concentration at 2 h [4, 6]: 2860 ng/g
concentration at 4 h [4, 6]: 835 ng/g
concentration at 2 h [4, 9]: 1390 ng/mL
concentration at 4 h [4, 9]: 526 ng/mL
concentration at 1 h [4, 8]: 1420 ng/mL
EC50 (mGlu4): > 25 µM
IC50 (mGlu4): 17 µM
Emax (mGlu4; read-out: mGlu4 agonism Emax): 5%
Emax (mGlu4; read-out: mGlu4 antagonism Emax): 100%
EC50 (mGlu7): > 25 µM
IC50 (mGlu7): 8.32 µM
Emax (mGlu7; read-out: mGlu7 PAM Emax): 5%
EC50 (mGlu7; read-out: mGlu7 agonism EC50, Ca2+ read-out): > 25 µM
Emax (mGlu7; read-out: mGlu7 agonism Emax): 1%
Emax (mGlu7; read-out: mGlu7 antagonism Emax): 27%
EC50 (mGlu6): > 30 µM
IC50 (mGlu6): 26.5 µM
Emax (mGlu6; read-out: mGlu6 agonism Emax): 1%
Emax (mGlu6; read-out: mGlu6 antagonism Emax): 53%

SMILES: CCCCn1ccn2c(-c3ccc(N4CCNCC4)c(Cl)c3)c(C)nc2c1=O [Compound 3g]
EC50 (mGlu2 receptor [3]): 0.989 µM
Emax (mGlu2 receptor [3]): 36 ± 4%
RLM (%), percentage of compound metabolized [1]: 17%
HLM (%), percentage of compound metabolized [2]: 0%

SMILES: CCCCn1ccn2c(-c3ccc4c(ccn4-c4cccnc4)c3)c(C)nc2c1=O [Compound 3i]
EC50 (mGlu2 receptor [3]): 0.229 µM
Emax (mGlu2 receptor [3]): 44%
RLM (%), percentage of compound metabolized [1]: 47%
HLM (%), percentage of compound metabolized [2]: 35%

SMILES: CCCCn1ccn2c(-c3ccc(Oc4ccccc4)cc3)c(C)nc2c1=O [Compound 3j]
EC50 (mGlu2 receptor [3]): 0.151 µM
Emax (mGlu2 receptor [3]): 48 ± 2%
RLM (%), percentage of compound metabolized [1]: 86%
HLM (%), percentage of compound metabolized [2]: 2%
brain level 4 h ([4]; 10 mg/kg p.o., 4 h): BQL ^d
concentration at 1 h [4, 10]: 104 ng/g
concentration at 2 h [4, 10]: 92 ng/g
Kp at 2 h ([4]; male, Sprague Dawley, brain/plasma, po, 10 mg/kg): 0.5
concentration at 1 h [4, 11]: 263 ng/mL
concentration at 2 h [4, 11]: 192 ng/mL
concentration at 4 h [4, 11]: 14 ng/mL

Source: article PMC8427794 (ACS Omega, 2021)
